pEC50, pIC50: −log10 of the molar value. “Also recorded” adds a separate entry of the source.
Columns and labels:
PI3Kα [1] = biological target: T1, PI3Kα (Homo sapiens, UniProt P42336); test: Mass spectrometry of intact PI3Kα (Millipore, 14-602), 1 hr incubation; type: binding; design: purchased Millipore 14-602; conditions: 10× fold excess of compound, MALDI
Experimental: (§1) Mass Spectrometry for PI3K
Aliquots (5 μl) of the samples were diluted with 15 μl of 0.2% TFA prior to micro C4 ZipTipping directly onto the MALDI target using Sinapinic acid as the desorption matrix (10 mg/ml in 0.1% TFA:Acetonitrile 50:50).
Target sequence in this assay (P42336 whole entry): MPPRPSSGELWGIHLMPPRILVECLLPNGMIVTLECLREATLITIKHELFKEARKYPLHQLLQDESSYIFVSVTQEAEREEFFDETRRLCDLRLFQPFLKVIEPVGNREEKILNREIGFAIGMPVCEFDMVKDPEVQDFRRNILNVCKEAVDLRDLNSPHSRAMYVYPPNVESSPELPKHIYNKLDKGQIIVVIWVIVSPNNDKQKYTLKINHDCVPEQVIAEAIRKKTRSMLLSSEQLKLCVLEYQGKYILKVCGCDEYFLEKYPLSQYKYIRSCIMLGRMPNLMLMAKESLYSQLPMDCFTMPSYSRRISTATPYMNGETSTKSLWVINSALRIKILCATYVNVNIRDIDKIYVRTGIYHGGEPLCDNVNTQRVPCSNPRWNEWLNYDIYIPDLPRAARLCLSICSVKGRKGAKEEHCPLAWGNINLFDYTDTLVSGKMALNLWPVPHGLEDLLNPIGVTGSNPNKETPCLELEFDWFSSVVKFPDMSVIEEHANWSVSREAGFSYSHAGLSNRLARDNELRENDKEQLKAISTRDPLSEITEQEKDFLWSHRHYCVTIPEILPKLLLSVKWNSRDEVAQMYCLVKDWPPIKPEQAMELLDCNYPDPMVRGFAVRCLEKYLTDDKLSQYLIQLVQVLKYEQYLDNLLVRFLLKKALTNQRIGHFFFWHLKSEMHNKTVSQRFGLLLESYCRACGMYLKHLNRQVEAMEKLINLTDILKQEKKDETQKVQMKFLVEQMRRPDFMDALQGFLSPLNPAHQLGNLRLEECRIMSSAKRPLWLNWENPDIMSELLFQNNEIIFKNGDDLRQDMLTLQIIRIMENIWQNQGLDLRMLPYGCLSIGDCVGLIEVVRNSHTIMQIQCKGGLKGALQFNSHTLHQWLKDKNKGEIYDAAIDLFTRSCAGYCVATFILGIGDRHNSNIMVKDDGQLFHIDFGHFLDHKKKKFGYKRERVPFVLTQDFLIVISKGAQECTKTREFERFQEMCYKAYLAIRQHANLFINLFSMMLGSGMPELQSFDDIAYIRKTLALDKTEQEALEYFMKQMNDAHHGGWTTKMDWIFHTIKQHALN
Target sequence in this assay (P27986 whole entry partner): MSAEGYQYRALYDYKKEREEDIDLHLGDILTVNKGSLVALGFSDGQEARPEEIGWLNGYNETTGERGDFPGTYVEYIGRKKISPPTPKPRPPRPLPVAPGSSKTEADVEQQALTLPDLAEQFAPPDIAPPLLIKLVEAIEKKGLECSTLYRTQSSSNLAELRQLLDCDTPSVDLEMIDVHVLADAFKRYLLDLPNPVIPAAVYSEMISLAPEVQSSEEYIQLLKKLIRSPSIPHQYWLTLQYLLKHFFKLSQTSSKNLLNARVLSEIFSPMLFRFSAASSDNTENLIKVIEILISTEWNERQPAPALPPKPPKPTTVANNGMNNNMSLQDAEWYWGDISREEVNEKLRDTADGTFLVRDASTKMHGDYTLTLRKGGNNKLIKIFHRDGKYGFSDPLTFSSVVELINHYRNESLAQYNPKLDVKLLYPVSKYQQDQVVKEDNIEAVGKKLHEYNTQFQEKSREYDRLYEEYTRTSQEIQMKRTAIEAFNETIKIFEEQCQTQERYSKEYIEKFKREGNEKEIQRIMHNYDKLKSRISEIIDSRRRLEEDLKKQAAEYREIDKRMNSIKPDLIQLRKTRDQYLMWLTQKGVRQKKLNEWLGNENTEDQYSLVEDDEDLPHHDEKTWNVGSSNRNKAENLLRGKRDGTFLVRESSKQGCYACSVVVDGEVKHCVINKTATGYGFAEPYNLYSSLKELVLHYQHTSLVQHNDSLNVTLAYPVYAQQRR

Phospho-Akt(Ser473) [2] = test: Dose response in SKOV3 cells as determined by Western blot; type: cell-based; conditions: Homo sapiens, SK-OV-3, 1 hr, Phospho-Akt normalized to total Akt, read-out: Immunoblot
Summary of the method: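 SKOV3 cells in DMEM/10% FBS were treated with compound in 0.1% DMSO for 1 hr, then lysed. 50 ug protein was immunoblotted for Phospho-Akt(Ser473) and total Akt with fluorescent read-out. Phospho-Akt was normalized to total Akt and expressed as percent of untreated signal.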

PI3Kβ (p110β/p85α) = biological target: T2, PI3Kβ (p110β/p85α) (Homo sapiens, UniProt P42338); test: HTRF assay, potency against active PI3Kβ; type: biochemical; conditions: [ATP]=50 μM, [di-C8-PIP2]=10 μM, 30 min pre-incubation, read-out: PI3Kβ Inhibition
T2 construct: purchased BPS Bioscience (San Diego, Calif.) or Millipore (Billerica, Mass.)
T2 sequence (P42338 whole entry): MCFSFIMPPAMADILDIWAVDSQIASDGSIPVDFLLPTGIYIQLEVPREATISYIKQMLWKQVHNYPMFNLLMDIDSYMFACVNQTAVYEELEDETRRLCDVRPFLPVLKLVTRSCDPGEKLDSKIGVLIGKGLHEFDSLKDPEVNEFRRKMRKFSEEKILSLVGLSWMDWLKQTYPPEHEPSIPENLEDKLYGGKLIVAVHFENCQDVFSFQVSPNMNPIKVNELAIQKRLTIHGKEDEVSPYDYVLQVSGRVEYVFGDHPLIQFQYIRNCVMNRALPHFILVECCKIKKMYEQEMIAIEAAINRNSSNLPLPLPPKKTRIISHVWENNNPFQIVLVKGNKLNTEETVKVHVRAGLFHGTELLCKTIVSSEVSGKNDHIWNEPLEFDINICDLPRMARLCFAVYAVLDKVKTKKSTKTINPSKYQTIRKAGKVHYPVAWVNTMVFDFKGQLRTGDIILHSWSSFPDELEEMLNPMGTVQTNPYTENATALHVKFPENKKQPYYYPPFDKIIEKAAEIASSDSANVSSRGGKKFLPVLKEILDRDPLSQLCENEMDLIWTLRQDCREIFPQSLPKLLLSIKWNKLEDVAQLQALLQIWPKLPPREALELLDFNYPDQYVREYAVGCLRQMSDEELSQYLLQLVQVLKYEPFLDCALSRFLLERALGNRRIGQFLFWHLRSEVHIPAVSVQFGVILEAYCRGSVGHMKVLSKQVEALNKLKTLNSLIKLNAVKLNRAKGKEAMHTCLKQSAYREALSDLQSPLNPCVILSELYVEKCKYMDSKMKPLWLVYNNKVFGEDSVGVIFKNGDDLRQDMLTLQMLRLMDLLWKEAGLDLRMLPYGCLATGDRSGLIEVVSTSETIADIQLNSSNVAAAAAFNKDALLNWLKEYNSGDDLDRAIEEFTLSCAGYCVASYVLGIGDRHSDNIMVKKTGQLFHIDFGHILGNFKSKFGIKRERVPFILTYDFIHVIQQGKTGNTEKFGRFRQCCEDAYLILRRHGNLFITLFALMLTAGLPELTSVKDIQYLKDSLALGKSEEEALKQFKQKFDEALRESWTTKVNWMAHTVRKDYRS
T2 sequence (P27986 whole entry partner): as the sequence (P27986 whole entry partner) above
Summary of the method: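 Active p110/p85α lipid kinase reactions were started with ATP and run 30-60 minutes at 25 °C, then stopped and developed with HTRF detection mix. HTRF ratio converted to % inhibition against ±enzyme controls; IC50 from log[inhibitor] vs response, variable slope.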

Phospho-Akt(Ser473) [3] = test: Dose response in SKOV3 cells as determined by in-cell Western; type: cell-based; conditions: Homo sapiens, SK-OV-3
Summary of the method: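 SKOV3 cells treated with compound for 1 hr, then formaldehyde-fixed, permeabilised and stained overnight for phospho-Akt(Ser473) with anti-tubulin as a reference. Infrared secondary antibodies read at 680 and 800 nm channels by in-cell Western imaging.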

PI3Kα [4] = biological target: T1, PI3Kα; test: Mass spectrometry of intact PI3Kα (Johns Hopkins), 3 hr incubation; type: binding; design: Johns Hopkins; conditions: 10× fold excess of compound, MALDI
Experimental: as §1
Target sequence in this assay (P42336 whole entry): as the sequence (P42336 whole entry) above
Target sequence in this assay (P27986 322-600 partner limits assumed): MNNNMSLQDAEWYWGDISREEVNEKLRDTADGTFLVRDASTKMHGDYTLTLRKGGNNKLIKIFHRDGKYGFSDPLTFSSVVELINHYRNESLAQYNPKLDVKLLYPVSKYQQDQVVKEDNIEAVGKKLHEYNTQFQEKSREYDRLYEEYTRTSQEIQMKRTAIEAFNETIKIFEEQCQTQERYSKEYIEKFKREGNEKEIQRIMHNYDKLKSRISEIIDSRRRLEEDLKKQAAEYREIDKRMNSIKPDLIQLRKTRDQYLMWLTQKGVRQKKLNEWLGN
Intact PI3Kα (Johns Hopkins) was incubated for 3 hr at a 10× fold excess of II-a-45 or II-a-49 to protein. Aliquots (3 μL) of the samples were diluted with 10 μL of 0.1% TFA prior to micro C4 ZipTipping directly onto the MALDI target using Sinapinic acid as the desorption matrix (10 mg/ml in 0.1% TFA:Acetonitrile 50:50).

[5] = SKOV3 cells, 1 hr, read-out: pAKT Inhibition in cell Western

covalent modification of PI3Kα (PI3Kα [4]) | Compound | covalent modification of PI3Kα (PI3Kα [1]) | pEC50 (Phospho-Akt(Ser473) [2]) | pIC50 (PI3Kβ (p110β/p85α)) | pEC50 (Phospho-Akt(Ser473) [3]; [5]) | pEC50 (Phospho-Akt(Ser473) [3]; Table 19, assay not given, classes agree with Table 23, read-out: EC50 pAkt^Ser473)
– | CC(C)=CC(=O)CCC(=O)N1CCN(Cc2cc3nc(-c4cccc5[nH]ncc45)nc(N4CCOCC4)c3s2)CC1 [II-a-3, 1-(4-((2-(1H-indazol-4-yl)-4-morpholinothieno[3,2-d]pyrimidin-6-yl)methyl)piperazin-1-yl)-6-methylhept-5-ene-1,4-dione] | complete modification; also recorded: covalent modification | 7.00 to 8.00 | < 6.00 | ≥ 8.00 | ≥ 8.00
completely modify | C/C=C/C(=O)CCC(=O)N1CCN(Cc2cc3nc(-c4cccc5[nH]ncc45)nc(N4CCOCC4)c3s2)CC1 [II-a-36, (E)-1-(4-((2-(1H-indazol-4-yl)-4-morpholinothieno[3,2-d]pyrimidin-6-yl)methyl)piperazin-1-yl)hept-5-ene-1,4-dione] | – | 7.00 to 8.00 | < 6.00 | 6.00 to 7.00 | –

— patent US20110230476A1, “PI3 KINASE INHIBITORS AND USES THEREOF” (AVILA THERAPEUTICS, INC., priority 2009, published 2011)
